Reference: US7271148B2, “Inhibition of cellular proteases” (The Board of Regents of The University of Texas System, priority 1999, dated 2007)
Where a SMILES comes first, the peptide text is derived from it. The star is where a group is joined. Cbz = O=C(OCc1ccccc1)*

Columns and labels:
[1] = system: p21^cip1 abundance in mock-infected LU cells; assay: Western blot of p21cip1 abundance in mock-infected, density-arrested LU cells; assay type: cell-based, human
Protocol: (§1) Cell culture and growth arrest. LU cells (3) were propagated in Eagle's minimum essential medium containing 10% fetal bovine serum and penicillin (100 units/ml)/streptomycin (100 μg/ml) in a 5% CO2 in air atmosphere. The cells were density-arrested as described previously in detail (18).
(§2) Virus stocks and productive infection. The AD169 strain of HCMV was propagated in LU cells as previously described in detail (6). The infectivity of virus stocks was determined by plaque assay (3). Virus stocks typically had infectivities between 8.0×10^6 and 4.0×10^7 plaque-forming units (PFU)/milliliter. LU cells were infected with HCMV as described in detail by Bresnahan et al. (18). Virus stocks and cell cultures were routinely examined for mycoplasma.
(§3) Western blots. Polyclonal or monoclonal antibody for p21^cip1 was obtained from Santa Cruz Biotechnology, Inc. (Santa Cruz, Calif.). Monoclonal antibodies against m-calpain, μ-calpain or calpastatin were generously provided by Dr. R. I. Mellgren (see also 75). Cells were harvested as described previously (18) by dislodging the cells with a cell lifter in phosphate buffered saline. The cells were collected by sedimentation and lysed in NP-40 lysis buffer [50 mM Tris, pH 7.4, 50 mM NaCl, 0.5% NP-40, and 1 mM NaVO3, 50 mM NaF, 1mM phenylmethylsulfonyl fluoride (PMSF), 1 mM dithiothreitol (DTT), 25 μg/ml trypsin inhibitor, 25 μg/ml aprotinin, 1 mM benzamide, and 25 μg/ml pepstatin A added just before use]. Cellular debris was removed by sedimentation and the supernatant fluids were reserved. The protein concentration was determined by the BCA protein assay (Pierce, Rockford, Ill.). Whole cell extracts (40 μg/lane) were fractionated by SDS-polyacrylamide gel electrophoresis (PAGE), and the polypeptides were transferred to nitrocellulose membranes (Bio-Rad Laboratories, Hercules, Calif.) as described previously (18). Antigen-antibody reactions were detected with the enhanced chemiluminescent assay (Amersham Pharmacia Biotech) following the manufacturer's recommendations.
FIGS. 5 and 6. The effect of MG132, an inhibitor of proteasome degradation, on p21^cip1 abundance in HCMV- or mock-infected, density-arrested LU cells. 5. LU cells were density arrested, as described in Materials and Methods. The cell cultures were HCMV (5 PFU/cell)- or mock-infected and then exposed to selected concentrations of MG132 at 24 hr PI. Cell lysates were prepared at 30 hr PI (i.e., 6 hr after […] treatment), and 40 μg of protein from each lysate was resolved by SDS-PAGE. The proteins were transferred to nitrocellulose and probed with antibodies against p21^cip1. Control, cells cultured in the absence of MG132 or its solvent, DMSO. 0, DMSO solvent control, consisting of cells treated with the same concentration of DMSO (0.1%) present in the cultural fluids containing highest concentration of MG132 (10 μM). 6. Represents the abundance of p21^cip1 after MG132 treatment determined by densitometry of the data illustrated in FIG. 5. The data for mock-infected cells (open bars) were calculated relative to the p21^cip1 abundance in untreated mock-infected cells, while the data for HCMV-infected cells (closed bars) were determined relative to the p21^cip1 abundance in untreated HCMV-infected cells.
FIGS. 7 and 8. […]
At the times indicated in the FIG., whole cell lysates were prepared, and 40 μg of protein from each lysate was analyzed by SDS-PAGE. […]

[2] = system: p21^cip1 abundance in HCMV-infected LU cells; assay: Western blot of p21cip1 abundance in HCMV-infected, density-arrested LU cells; assay type: cell-based, human
Protocol: as §1, §2
as §3, with “recommendations. […]” for “recommendations.”
FIGS. 9 and 10. The concentration effect of E64d on p21^cip1 abundance in HCMV-infected cells. 9: LU cells were density arrested as described in Materials and Methods. The cells were HCMV (5 PFU/cell) or mock infected, and at 48 hr PI were treated with selected concentrations of E64d. Whole cell lysates were prepared 6 hr later, and 40 μg of protein from each lysate was resolved by SDS-PAGE. The proteins were transferred to nitrocellulose and probed with antibodies to p21^cip1. Mock: mock-infected cells in the absence of drug. Control, untreated HCMV-infected cells. 0, DMSO solvent control, consisting of HCMV-infected cells treated with the same concentration of DMSO solvent (0.1%) contained in the highest concentration of E64d. 10: Represents the abundance of p21^cip1 determined by densitometric analysis of the data in FIG. 9.
FIGS. 11 and 12. The concentration effect of Z-Leu-Leu-H on p21^cip1 abundance in HCMV-infected cells. 11. LU cells were density arrested as described in Materials and Methods. The cells were HCMV (5 PFU/cell) infected, and at 48 hr PI were treated with selected concentrations of Z-Leu-Leu-H. Whole cell lysates were prepared 6 hr later, and 40 μg of protein from each lysate was resolved by SDS-PAGE. The proteins were transferred to nitrocellulose and probed with antibodies to p21^cip1. Mock, Control, and 0 are defined as in the legend to FIG. 9. 12 : Represents the abundance of p21^cip1 determined by densitometric analysis of the data in FIG. 11.
FIGS. 13 and 14. The time course for the effect of E64d on p21^cip1 abundance in HCMV-infected, density-arrested cells. 13: LU cells were density arrested, as described in Materials and Methods. The cells were HCMV (5 PFU/cell) or mock infected, and at the intervals indicated in the Fig., beginning 1 hr after infection, subsets of the cells were treated with E64d (100 μM). […]

CC(C)C[C@@H](C=O)NC(=O)[C@H](CC(C)C)NC(=O)[C@H](CC(C)C)NC(=O)OCc1ccccc1 [MG132] (Cbz-Leu-Leu-Leu-aldehyde)
increase in p21^cip1 abundance relative to DMSO solvent control or cells in the absence of any chemical ([1]; MG132 10 μM, mock-infected density-arrested LU cells, densitometry of Western blot (FIGS. 5 and 6)): 3.6 fold | slope of the concentration effect on p21^cip1 abundance (linear regression analysis) ([1]; mock-infected cells, MG132 0 to 10 μM, p<0.01): 0.33 | change in p21^cip1 abundance (in words) ([1]; mock-infected density-arrested LU cells, MG132 0 to 10 μM): concentration-dependent increase in the abundance of p21^cip1 | slope of the concentration effect on p21^cip1 abundance (linear regression analysis) ([2]; HCMV-infected cells, MG132 0 to 10 μM, p<0.01): 0.19 | change in p21^cip1 abundance (in words) ([2]; HCMV-infected cells, MG132 2.5 μM to 10 μM, compared with mock-infected cells): smaller increases in p21^cip1 abundance

CC(C)CC(C=O)NC(=O)C(CC(C)C)NC(=O)OCc1ccccc1 (stereo not drawn) [Z-Leu-Leu-H]
p21^cip1 abundance as % of that measured in mock-infected cells ([2]; 100 μM, HCMV-infected cells treated at 48 hr PI, lysates 6 hr later): about 72% | protection of p21^cip1, concentration effect (in words) ([2]; HCMV-infected cells treated at 48 hr PI for 6 hr, selected concentrations up to 100 μM): protected p21^cip1 in a concentration-dependent manner
